According to ChEMBL document CHEMBL1201862, “PubChem BioAssay data set” (2004):
The source made the active and inactive calls. Rule as the data show it, for most assays here: actives have a measured EC50 and inactives only a lower limit.

How the values were obtained:
[1] = molecular target: T1, Calpain-2 catalytic subunit (Sus scrofa, UniProt P43367); assay: m-calpain protease blockers, concentration series – biochemical, fluorogenic peptide substrate, dose response (AID 1420); type: functional
T1 sequence (P43367 whole entry): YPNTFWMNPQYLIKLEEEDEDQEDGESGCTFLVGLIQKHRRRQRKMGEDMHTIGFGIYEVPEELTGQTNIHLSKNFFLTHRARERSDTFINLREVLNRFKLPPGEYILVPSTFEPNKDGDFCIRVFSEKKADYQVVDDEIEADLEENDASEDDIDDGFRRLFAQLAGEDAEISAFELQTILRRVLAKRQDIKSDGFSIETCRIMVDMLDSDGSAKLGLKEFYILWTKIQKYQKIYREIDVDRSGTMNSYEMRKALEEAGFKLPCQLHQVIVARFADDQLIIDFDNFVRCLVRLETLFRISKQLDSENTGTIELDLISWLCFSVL

[2] = molecular target: T2, Heat shock factor protein 1 (Mus musculus, UniProt P38532); assay: decrease of HSF1-responsive luciferase luminescence – cell-based, NIH3T3, dose retest, confirmation (AID 2382); type: functional;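 also: NIH3T3 fibroblasts with HSF1-driven luciferase reporter stressed by proteasome inhibitor MG132; luminescence from HSF1-driven luciferase expression after 8 hours of MG132 stress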
T2 sequence (P38532 whole entry): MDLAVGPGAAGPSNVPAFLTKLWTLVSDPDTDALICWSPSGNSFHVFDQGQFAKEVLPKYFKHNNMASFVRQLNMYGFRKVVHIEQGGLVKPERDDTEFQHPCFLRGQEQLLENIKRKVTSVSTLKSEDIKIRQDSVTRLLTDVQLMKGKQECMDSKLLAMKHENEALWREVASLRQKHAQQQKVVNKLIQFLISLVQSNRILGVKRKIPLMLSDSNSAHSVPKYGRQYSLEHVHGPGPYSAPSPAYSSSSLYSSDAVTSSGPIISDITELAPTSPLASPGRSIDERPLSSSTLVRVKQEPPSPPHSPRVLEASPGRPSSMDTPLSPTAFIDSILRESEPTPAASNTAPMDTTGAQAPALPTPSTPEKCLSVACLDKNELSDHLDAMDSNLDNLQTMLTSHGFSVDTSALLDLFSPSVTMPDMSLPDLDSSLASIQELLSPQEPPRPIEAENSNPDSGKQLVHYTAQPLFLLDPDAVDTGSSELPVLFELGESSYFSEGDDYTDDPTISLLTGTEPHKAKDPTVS

Large T antigen = Large T antigen (Simian virus 40, UniProt P03070); type: functional, Betapolyomavirus macacae;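 also: Confirmatory-stage PubChem screen for compounds that inhibit SV40 T antigen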
Chain of Large T antigen (P03070 whole entry, the tested form may be a part): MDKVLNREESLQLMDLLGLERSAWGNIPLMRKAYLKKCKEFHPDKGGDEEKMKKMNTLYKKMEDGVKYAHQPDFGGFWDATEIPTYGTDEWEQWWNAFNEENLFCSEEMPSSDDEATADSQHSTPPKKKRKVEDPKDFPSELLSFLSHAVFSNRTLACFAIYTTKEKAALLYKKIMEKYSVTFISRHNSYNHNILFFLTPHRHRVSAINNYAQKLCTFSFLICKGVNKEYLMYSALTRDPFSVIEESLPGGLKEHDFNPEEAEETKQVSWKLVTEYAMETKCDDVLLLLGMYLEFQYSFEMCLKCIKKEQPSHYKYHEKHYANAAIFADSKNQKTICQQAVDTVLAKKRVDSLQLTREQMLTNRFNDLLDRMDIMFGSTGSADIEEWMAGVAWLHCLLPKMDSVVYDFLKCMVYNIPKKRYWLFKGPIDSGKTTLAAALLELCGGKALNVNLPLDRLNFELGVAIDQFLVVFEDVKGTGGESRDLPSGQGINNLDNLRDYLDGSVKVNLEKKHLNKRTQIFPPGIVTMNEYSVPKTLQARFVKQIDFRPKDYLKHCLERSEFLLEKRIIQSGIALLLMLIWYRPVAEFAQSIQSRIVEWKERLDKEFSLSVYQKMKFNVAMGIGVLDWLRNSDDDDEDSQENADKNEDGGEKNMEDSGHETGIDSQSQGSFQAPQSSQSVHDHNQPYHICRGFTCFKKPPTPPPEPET

[3] = molecular target: T3, RNA-binding protein pos-1 (Caenorhabditis elegans, UniProt G5EF15); assay: disruptors of C. elegans POS-1 RNA interaction – biochemical, fluorescence polarization, dose response (AID 1964);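 also: purified POS-1 fused to maltose binding protein made in E. coli; potency of compounds blocking POS-1 binding to fluorescent RNA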
T3 sequence (G5EF15 whole entry): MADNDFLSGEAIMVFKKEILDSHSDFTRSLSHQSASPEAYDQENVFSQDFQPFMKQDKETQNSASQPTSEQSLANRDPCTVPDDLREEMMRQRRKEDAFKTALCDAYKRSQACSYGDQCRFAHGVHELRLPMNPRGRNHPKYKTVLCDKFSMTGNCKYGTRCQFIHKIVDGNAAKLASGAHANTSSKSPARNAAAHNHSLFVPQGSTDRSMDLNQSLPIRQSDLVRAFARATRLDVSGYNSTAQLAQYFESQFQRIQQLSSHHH

[4] = molecular target: T4, Zinc finger protein mex-5 (Caenorhabditis elegans, UniProt Q9XUB2); assay: potency of MEX-5 RNA-binding blockers – biochemical, C. elegans, fluorescence polarization, dose response (AID 1960)
T4 sequence (Q9XUB2 whole entry): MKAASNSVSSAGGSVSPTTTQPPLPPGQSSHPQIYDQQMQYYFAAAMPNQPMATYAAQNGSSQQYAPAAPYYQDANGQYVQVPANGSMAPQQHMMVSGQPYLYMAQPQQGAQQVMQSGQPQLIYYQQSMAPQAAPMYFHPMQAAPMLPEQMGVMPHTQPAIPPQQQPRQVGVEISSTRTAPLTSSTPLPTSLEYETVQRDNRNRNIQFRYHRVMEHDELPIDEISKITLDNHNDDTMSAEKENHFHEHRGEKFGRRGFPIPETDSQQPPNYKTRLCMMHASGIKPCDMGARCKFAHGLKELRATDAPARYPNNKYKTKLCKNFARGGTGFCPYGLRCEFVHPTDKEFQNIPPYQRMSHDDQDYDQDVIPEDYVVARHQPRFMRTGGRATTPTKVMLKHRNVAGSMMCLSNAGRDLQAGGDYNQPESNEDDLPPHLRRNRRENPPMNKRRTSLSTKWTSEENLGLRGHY

H9c2 = assay: cells; type: functional, cell-based; conditions: Rattus norvegicus, H9c2, Myocardium;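 also: confirmatory concentration-response retest of ultra-high-throughput screening hits for modulation of myocardial damage; cell death induced by hydrogen peroxide oxidative stress; compound pretreatment for 60 min then peroxide exposure for 2 h; potency is for protecting the cells against peroxide damage rather than for killing them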
Cytochrome P450 2D6 = Cytochrome P450 2D6 (Homo sapiens, UniProt P10635);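 also: CYP2D6 member of a cytochrome P450 panel assay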
Chain of Cytochrome P450 2D6 (P10635 whole entry): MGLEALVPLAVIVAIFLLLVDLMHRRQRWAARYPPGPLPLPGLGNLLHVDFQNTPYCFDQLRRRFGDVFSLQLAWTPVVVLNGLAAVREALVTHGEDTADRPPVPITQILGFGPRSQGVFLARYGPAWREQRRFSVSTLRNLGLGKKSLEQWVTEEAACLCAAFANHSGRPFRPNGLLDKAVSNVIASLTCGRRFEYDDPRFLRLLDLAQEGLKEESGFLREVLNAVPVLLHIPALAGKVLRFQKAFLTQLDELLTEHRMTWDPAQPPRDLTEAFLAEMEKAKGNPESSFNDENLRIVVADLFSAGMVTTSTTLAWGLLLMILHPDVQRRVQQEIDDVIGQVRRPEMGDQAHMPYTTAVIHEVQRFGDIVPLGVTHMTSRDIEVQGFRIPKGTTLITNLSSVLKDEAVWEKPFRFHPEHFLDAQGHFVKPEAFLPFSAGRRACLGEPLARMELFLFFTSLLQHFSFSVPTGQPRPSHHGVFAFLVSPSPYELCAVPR

[5] = Trypanosoma cruzi growth suppression in host cells – NIH3T3 host cells, beta-gal luminescence, confirmation (AID 2044); type: functional, cell-based;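 also: intracellular parasites grown in NIH/3T3 mouse fibroblasts as host cells; luminescent beta-galactosidase reporter signal from transgenic T. cruzi replicating inside host cells; inhibitors lower the luminescence signal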
[6] = NIH3T3 cell viability loss – ATP luminescence, mouse fibroblasts, counter-screen, dose response (AID 2010); type: functional, cell-based;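 also: cells exposed to compound for about 90 hours before reading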
cells = type: functional
BJ [7] = assay: BJ-TERT fibroblast viability loss – cell-based, RAS-independent, luminescence, dose response (AID 1933); type: functional; conditions: Homo sapiens
BJ [8] = assay: cells; type: functional, cell-based; conditions: Homo sapiens
BJ [9] = assay: BJ-TERT-LT-ST fibroblast viability loss – cell-based, RAS-independent, luminescence, dose response (AID 1935); type: functional; conditions: Homo sapiens;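 also: BJ fibroblasts immortalized with TERT plus LT and ST oncogenes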
[10] = DRD fibroblast viability loss – cell-based, non-viral oncogenic, luminescence, dose response (AID 1934); type: functional; conditions: Homo sapiens
[11] = Luminescence Cell-Based Dose Response HTS to Identify Activators of Luciferase Translation or Activity in H4 […] Cells. [Related pubchem assays: 1829 (Project Summary), 1814 (Primary HTS)]; type: functional
H4 = assay: Luminescence Cell-Based Dose Response HTS to Identify Activators of 5'UTR Stem-Loop Driven Prion Protein mRNA Translation in H4 Neuroglioblastoma Cells. [Related pubchem assays: 1829 (Project Summary), 1814 (Primary HTS)]; type: functional; conditions: Homo sapiens
[12] = molecular target: T5, Corticotropin-releasing factor receptor 2/Corticotropin-releasing factor-binding protein (Homo sapiens, UniProt P24387+Q13324); assay: activators of CRF receptor 2 with binding protein – uHTS hits, confirmation (AID 602473); type: functional; conditions: read-out: EC50_Mean
T5 sequence (Q13324 whole entry): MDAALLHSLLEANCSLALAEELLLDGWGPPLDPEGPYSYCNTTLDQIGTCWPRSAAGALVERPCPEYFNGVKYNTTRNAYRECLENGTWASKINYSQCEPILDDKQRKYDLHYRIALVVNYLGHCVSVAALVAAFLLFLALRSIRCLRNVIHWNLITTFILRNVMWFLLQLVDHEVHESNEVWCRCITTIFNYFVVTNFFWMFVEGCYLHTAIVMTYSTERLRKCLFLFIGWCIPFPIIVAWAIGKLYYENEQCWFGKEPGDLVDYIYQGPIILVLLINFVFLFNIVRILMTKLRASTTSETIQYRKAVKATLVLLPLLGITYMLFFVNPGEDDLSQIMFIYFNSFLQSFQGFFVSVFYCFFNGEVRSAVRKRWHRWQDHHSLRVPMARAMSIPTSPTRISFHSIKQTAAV
T5 sequence (P24387 whole entry): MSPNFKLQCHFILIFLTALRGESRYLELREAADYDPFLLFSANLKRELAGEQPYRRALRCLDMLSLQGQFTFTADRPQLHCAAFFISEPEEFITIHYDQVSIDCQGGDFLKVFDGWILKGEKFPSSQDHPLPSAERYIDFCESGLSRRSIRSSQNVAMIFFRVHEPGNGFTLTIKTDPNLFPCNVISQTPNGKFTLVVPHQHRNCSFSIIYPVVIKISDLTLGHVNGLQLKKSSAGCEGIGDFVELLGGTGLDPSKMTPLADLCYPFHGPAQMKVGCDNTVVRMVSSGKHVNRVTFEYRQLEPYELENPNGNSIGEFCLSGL

C[C@H](NS(=O)(=O)c1ccc(Cl)cc1)C(=O)OCC(=O)NC(=O)Nc1ccc2c(c1)OCCO2
IC50 [1]: 14.2 µM (not active)

O=C(OCCCN1CCOCC1)c1ccc(O)c(O)c1
EC50 [2]: 34.7 µM (active)
IC50 (Large T antigen): 11.7 µM (active)

CCOC(=O)C1Nc2ccc(C(F)(F)F)cc2C2C=CCC12 (stereo not given)
EC50 [3]: > 300 µM (not active)
EC50 [4]: > 300 µM (not active)

O=C(N[C@@H](Cc1ccccc1)C(=O)OCc1ccccc1)c1[nH]cnc1C(=O)N1CCN(c2ccccc2)CC1
IC50 [1]: 6.6 µM (not active)

Cc1cc(O)nc2ccc(S(=O)(=O)Nc3ccc(O)cc3)cc12
IC50 (Large T antigen): 7.49 µM (active)

CCCc1cc(O)nc(Nc2ccc(O)cc2)n1
IC50 (Large T antigen): 6.91 µM (active)

CN(C(=O)CCc1nc(O)c2ccccc2n1)C1CCS(=O)(=O)C1 (stereo not given)
IC50 (H9c2): > 79 µM (inactive)

COc1ccc(C(C(=O)NCc2ccccc2)N(Cc2cccs2)C(=O)c2cnccn2)cc1 (stereo not given)
IC50 (H9c2): > 79 µM (inactive)
AC50 (Cytochrome P450 2D6): 31.6 µM (inconclusive)

N=C(NOC(=O)CCCCCN1C(=O)c2ccccc2C1=O)c1ccccc1
IC50 [1]: 48.1 µM (not active)

CC(C)(C)c1ccc(OCCOc2ccc(C(C)(C)C)cc2NC=O)c(NC=O)c1
EC50 [5]: 2.47 µM (active)
IC50 [1]: 16.6 µM (not active)
EC50 [6]: > 60 µM (not active)

O=C(CN1CCN(c2ccc(O)cc2)CC1)Nc1ccc2c(c1)OCCO2
IC50 (Large T antigen): 8.22 µM (active)

Cc1c(-c2ccc(Br)cc2)nc2ccccn12
IC50 (cells): 49.4 µM (active)

N#CC1=C(N)C(C#N)(C#N)C(c2cccnc2)C2COCC=C12 (stereo not given)
EC50 [3]: > 300 µM (not active)
EC50 [4]: > 300 µM (not active)

c1ccc(-c2nc(-c3ccccn3)nc(-c3ccccn3)n2)nc1
EC50 [3]: 31.1 µM (active)
EC50 [4]: 54.6 µM (active)

CCOC(=O)C1CCN(S(=O)(=O)c2cc(Br)cc3c2N(C(=O)C2CC2)CC3)CC1
IC50 [1]: 11.5 µM (not active)

COc1ccccc1OCCNC(=O)c1cc([N+](=O)[O-])cc([N+](=O)[O-])c1
EC50 [5]: 0.107 µM (active)
EC50 [6]: > 60 µM (not active)
IC50 (cells): 47.6 µM (active)

O=C(Nc1ccc(N2CCCC2)cc1)c1cc(Cl)ccc1Cl
EC50 (BJ [7]): 13.6 µM (active)
EC50 (BJ [8]): > 150 µM (not active)
EC50 (BJ [9]): 146 µM (active)
EC50 [10]: 15.8 µM (active)

Nc1ccc(-c2nnc(O)c3ccccc23)cc1N
IC50 (H9c2): > 79 µM (inactive)

O=C1NC(=O)[C@@H]2C3c4ccccc4C=CN3[C@H](C(=O)c3cccs3)[C@H]12 (stereo not given in full)
EC50 [3]: 24.6 µM (inconclusive)
EC50 [4]: 16.4 µM (active)

O=S(=O)(c1ccccc1)N1CCN(c2nc(-c3cccnc3)nc3ccccc23)CC1
IC50 (H9c2): 10.2 µM (active)

CC(=O)c1ccc(NC(=O)CSc2nnc(-c3ccncc3)o2)cc1
EC50 [3]: > 300 µM (not active)
EC50 [4]: > 300 µM (not active)

CN1C(=O)C(=CNCCCCCCCCCCC(=O)O)C(=O)N(C)C1=O
EC50 [3]: > 300 µM (not active)
EC50 [4]: > 300 µM (not active)

Brc1ccc(-c2csc(NC3=NCCCCC3)n2)cc1
EC50 [11]: 18.9 µM (active)
EC50 (H4): 36.6 µM (active)

COc1ccccc1NS(=O)(=O)c1ccc2oc(SCC(=O)N3CCNC3=O)nc2c1
IC50 (H9c2): 15.8 µM (active)

CCOc1ccc(Cl)cc1S(=O)(=O)N1CCN(c2ccc(F)cc2)CC1
IC50 [1]: 7.1 µM (not active)

COc1cc2c(cc1OC)C[N+](C)(C)CC2
IC50 (Large T antigen): 55.1 µM (active)

COc1ccc(NC(=O)c2c(Cl)n(C)c3ccccc23)cc1
EC50 (BJ [7]): 22.7 µM (active)
EC50 (BJ [8]): 23 µM (active)
EC50 (BJ [9]): > 150 µM (inconclusive)
EC50 [10]: 25.3 µM (active)

Nc1ncccc1OCc1ccc(Br)cc1
EC50 [11]: 1.05 µM (active)
EC50 (H4): > 120 µM (not active)

CCOC(=O)COc1cc(N)c(Cl)cc1Cl
IC50 (cells): 7.65 µM (active)

C[C@@H]1ON(C)[C@H]2C[C@H]3c4[nH]c5ccc(-c6ccc7c(c6)OCO7)cc5c4CCN3C[C@@H]12
IC50 (H9c2): > 79 µM (inactive)

COc1ccccc1-c1cc(C(=O)N/N=C/C=C/c2ccccc2[N+](=O)[O-])c2ccccc2n1
IC50 (H9c2): > 79 µM (inactive)

COC(=O)c1c(C)[nH]c(O)c1/C=N/c1ccc(Oc2ccccc2)cc1
IC50 (H9c2): > 79 µM (inactive)
EC50 [12]: > 53 µM (inactive)

COc1ccc(/C=N/NC(=O)c2ccc(Br)cc2)cc1CN1CCOCC1
IC50 (Large T antigen): 15.8 µM (active)

O/N=C(\c1ccc(Cl)cc1)c1cc2ccccc2o1
IC50 [1]: 2.06 µM (not active)
